Data set [1] has as its system HER3-ss+4aa/Gaussia Luciferase. Description: Dox-Induced Her3-ss-Gluc Assay. In kind it is cell-based. The settings on record: 24 hr Dox induction, 293FRT/TO cells, read-out: 24 hr Dox Inducible Her3(ss + 4)Gluc 293FRT/TO: Mean IC50. The essentials: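 Flp-In 293 T-REx cells, stable HER3-ss+4aa/Gaussia luciferase insert, hygromycin/blasticidin selected; plated day before; compound in DMSO/media + doxycycline; 37° C., 5% CO2.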

Data set [2] in a line: Liver Microsome Stability Assay (monkey). The settings on record: monkey liver microsomes, with NADPH, 1.0 uM compound. Background: Microsomes from liver hold many membrane-bound enzymes, among them those of drug oxidation.
Description: (§1) Stability of a compound was assessed in the presence of liver microsomes from various sources—mouse, rat, monkey and human liver microsomes. 1.0 uM compound, 0.4% DMSO in 0.1 M Potassium Phosphate with 1.0 mg/mL liver microsomes, were incubated at 37° C. with or without 1 mM NADPH. The samples were quenched at 0, and 30 minutes.
For data set [3], the system named is multiple myeloma cell line U266B1. Description: U266 Cell Viability Assay. In kind it is cell-based, human. The settings on record: Homo sapiens, U-266, 48 h, U266B1 cells, Celltiter-Glo. In a few lines: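 Luminescent ATP read-out (CellTiter-Glo) after 48 h compound exposure at 37° C., 5% CO2; cells maintained in RPMI 1640/10% FBS/2 mM glutamine/pen-strep, compounds diluted in DMSO/media.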
In general terms: ATP-based viability assays read luminescence as a measure of living cells.

For data set [4], the system named is multiple myeloma cell line NCI-H929. Description: H929 Cell Viability Assay. Particulars: Homo sapiens, NCI-H929, 48 h, NCI-H929 cells, Celltiter-Glo. Type of data set: cell-based, human. In a few lines:
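Cells in RPMI 1640/10% FBS; compound dilutions in DMSO/media; 48 h, 37° C, 5% CO2; CellTiter-Glo luciferase readout for viability.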

Data set [5] is described as follows: Liver Microsome Stability Assay (mouse). Particulars: mouse liver microsomes, with NADPH, 1.0 uM compound.
Description: as §1
The nature of data set [6]: Liver Microsome Stability Assay (human). Particulars: human liver microsomes, with NADPH, 1.0 uM compound.
Description: as §1
Data set [7] deals with PD1-ss+10aa/Gaussia Luciferase. Description: Dox-Induced PD1-ss-Gluc Assay. Type of data set: cell-based. Particulars: 24 hr Dox induction, 293FRT/TO cells, read-out: 24 hr Dox Inducible PD1ssGluc 293FRT/TO: Mean IC50. In a few lines:
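Doxycycline-induced expression of a PD1-ss+10aa/Gaussia luciferase reporter is measured in stable Flp-In 293 T-REx cells. Compound dilutions containing doxycycline are added one day after plating and incubated at 37 °C, 5% CO2. Values for unassigned stereocentres refer to stereoisomer mixtures.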

The test system of data set [8] is IL-2-FL/Gaussia Luciferase. Description: Dox Induced IL2-FL-Gluc Assay. The settings on record: for pIC50: 24 hr Dox induction, 293FRT/TO cells, read-out: 24 hr Dox Inducible IL2FLGluc 293FRT/TO: Mean IC50; for 24 hr Dox Inducible IL2FLGluc 293FRT/TO: IL2/PD1: ratio of IL2FLGluc IC50 to PD1ssGluc IC50. Type of data set: cell-based. The essentials:
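Stable Flp-In 293 T-REx line, Tet-regulated IL-2 (aa 1-153)–Gaussia luciferase fusion; hygromycin/blasticidin selected. Plated day -1; compound + doxycycline added next day; 37° C, 5% CO2.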

A short description of data set [9]: Liver Microsome Stability Assay (rat). The settings on record: rat liver microsomes, with NADPH, 1.0 uM compound.
Description: as §1
The subject of data set [10] is TNFα-FL/Gaussia Luciferase. The data set is described as follows: Dox Induced TNFα-FL-Gluc Assay. Type of data set: cell-based. The settings on record: for pIC50: 24 hr Dox induction, 293FRT/TO cells, read-out: 24 hr Dox Inducible TNFaFLGluc 293FRT/TO: Mean IC50; for 24 hr Dox Inducible TNFaFLGluc 293FRT/TO: TNF/PD1: ratio of TNFaFLGluc IC50 to PD1ssGluc IC50. The essentials:
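Cell line: stable Flp-In 293 T-REx, TNFα-FL(1-233)-Gaussia luciferase fusion, T-REx-inducible. Plated day -1; compounds in DMSO/media + doxycycline, 37 °C, 5% CO2. Undefined stereocentres = mixture tested.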

Where [11] appears, read: '<=>' given where both are I.A.

Molecules are shown by their SMILES. pEC50, pIC50: −log10 of the molar value. Like-named read-outs stand apart in the source and are kept apart here.

On to `O=C(Nc1nc(CCC2CCCCO2)cs1)c1cccn1Cc1ccncc1` (stereo not drawn) [Compound E6, 1-(pyridin-4-ylmethyl)-N-(4-(2-(tetrahydro-2H-pyran-2-yl)ethyl)thiazol-2-yl)-1H-pyrrole-2-carboxamide], for which the pIC50 in [1] (mean) is 5.89; in [7] (mean), 6.68; in [8] (mean), 5.75; in data set [10] (mean), 5.22. In data set [2], the “Liver Microsome Stability (Multiple Species): Monkey - % Remaining after 30 min w/NADPH” value amounted to 0.57%. Also, the figures for the pEC50 in [3] and in data set [4] were below 4.60 and 4.62, respectively. Besides, the “Liver Microsome Stability (Multiple Species): Mouse - % Remaining after 30 min w/NADPH” value in [5] came out at 1.82%. The “Liver Microsome Stability (Multiple Species): Human - % Remaining after 30 min w/NADPH” value in [6] is recorded as 0.67%. In addition, in data set [8] (setting [11]), the “24 hr Dox Inducible IL2FLGluc 293FRT/TO: IL2/PD1” value is 8.6. Moreover, the “Liver Microsome Stability (Multiple Species): Rat - % Remaining after 30 min w/NADPH” value in data set [9] was found to be 0.75%. Besides, the “24 hr Dox Inducible TNFaFLGluc 293FRT/TO: TNF/PD1” value in data set [10] (setting [11]) is given as 29.1.
Consider `O=C(Nc1nc([C@H]2CCCN2c2ccc(OCCO)cc2)cs1)c1cccn1Cc1ccnc(F)c1` [Compound A134, (R)-1-((2-fluoropyridin-4-yl)methyl)-N-(4-(1-(4-(2-hydroxyethoxy)phenyl)pyrrolidin-2-yl)thiazol-2-yl)-1H-pyrrole-2-carboxamide], for which the pIC50 in data set [1] is 7.32; in data set [7], 7.56; in [8] it was 7.37; in [10], 6.28. Besides, the “Liver Microsome Stability (Multiple Species): Monkey - % Remaining after 30 min w/NADPH” value in data set [2] worked out at 13.5%. For the same compound, the pEC50 (in general, the EC50 on a negative log10 scale, so that one unit is a factor of ten) is below 4.60 in data set [3] and 6.07 in data set [4]. The “Liver Microsome Stability (Multiple Species): Mouse - % Remaining after 30 min w/NADPH” value in data set [5] is 2.18%. In [6], the “Liver Microsome Stability (Multiple Species): Human - % Remaining after 30 min w/NADPH” value is reported as 19.3%. Moreover, the “24 hr Dox Inducible IL2FLGluc 293FRT/TO: IL2/PD1” value in data set [8] is reported as 1.6. In addition, the “Liver Microsome Stability (Multiple Species): Rat - % Remaining after 30 min w/NADPH” value in data set [9] turned out to be 13.6%. Further, in [10], the “24 hr Dox Inducible TNFaFLGluc 293FRT/TO: TNF/PD1” value is 19.3.
As for `CC(C)c1ccc(/C=C/c2csc(NC(=O)c3cccn3Cc3ccnc(F)c3)n2)nc1` [Compound B64, (E)-1-((2-fluoropyridin-4-yl)methyl)-N-(4-(2-(5-isopropylpyridin-2-yl)vinyl)thiazol-2-yl)-1H-pyrrole-2-carboxamide], the pIC50 was 6.11 in data set [1], 7.69 in [7], 5.76 in [8] and 4.74 in data set [10]. Moreover, the “Liver Microsome Stability (Multiple Species): Monkey - % Remaining after 30 min w/NADPH” value in data set [2] is 0.12%. Also, the figures for the pEC50 in data set [3] and in data set [4] were below 4.65 and 4.80, respectively. Moreover, the “Liver Microsome Stability (Multiple Species): Mouse - % Remaining after 30 min w/NADPH” value in data set [5] was 0.29%. For the same compound, the “Liver Microsome Stability (Multiple Species): Human - % Remaining after 30 min w/NADPH” value in data set [6] came out at 0.37%. Further, the “24 hr Dox Inducible IL2FLGluc 293FRT/TO: IL2/PD1” value in data set [8] came out at 84. Moreover, the “Liver Microsome Stability (Multiple Species): Rat - % Remaining after 30 min w/NADPH” value in [9] is 0.46%. In data set [10], the “24 hr Dox Inducible TNFaFLGluc 293FRT/TO: TNF/PD1” value is recorded as 894.
`O=C(Nc1nc(/C=C/c2ncc(F)cc2F)cs1)c1cccn1CC1CCOCC1` [Compound D2, (E)-N-(4-(2-(3,5-difluoropyridin-2-yl)vinyl)thiazol-2-yl)-1-((tetrahydro-2H-pyran-4-yl)methyl)-1H-pyrrole-2-carboxamide]: the pIC50 was 5.82 in data set [1] (mean), 6.40 in data set [7] (mean), below 4.87 in data set [8] (mean) and 5.22 in [10] (mean). The “Liver Microsome Stability (Multiple Species): Monkey - % Remaining after 30 min w/NADPH” value in [2] came out at 0.23%. Further, the pEC50 in data set [3] was below 4.60; in data set [4] it was below 4.62. Further, in data set [5], the “Liver Microsome Stability (Multiple Species): Mouse - % Remaining after 30 min w/NADPH” value amounted to 2.76%. Also, in data set [6], the “Liver Microsome Stability (Multiple Species): Human - % Remaining after 30 min w/NADPH” value is 5.79%. The “24 hr Dox Inducible IL2FLGluc 293FRT/TO: IL2/PD1” value in data set [8] (setting [11]) was above 34. For the same compound, the “Liver Microsome Stability (Multiple Species): Rat - % Remaining after 30 min w/NADPH” value in [9] is listed as 0.39%. For the same compound, in [10] (setting [11]), the “24 hr Dox Inducible TNFaFLGluc 293FRT/TO: TNF/PD1” value was 15.3.
In the case of `O=C(Nc1nc(/C=C/c2ccncn2)cs1)c1cccn1Cc1ccncc1` [Compound B44, (E)-1-(pyridin-4-ylmethyl)-N-(4-(2-(pyrimidin-4-yl)vinyl)thiazol-2-yl)-1H-pyrrole-2-carboxamide], the pIC50 in data set [1] is below 4.60; in [7], 5.47; in data set [8] it was below 4.60; in data set [10], below 4.60. In addition, the “Liver Microsome Stability (Multiple Species): Monkey - % Remaining after 30 min w/NADPH” value in [2] came to 0.36%. For the same compound, the pEC50 in [3] and in [4] was below 4.60 each time. Besides, the “Liver Microsome Stability (Multiple Species): Mouse - % Remaining after 30 min w/NADPH” value in [5] was found to be 4.87%. The “Liver Microsome Stability (Multiple Species): Human - % Remaining after 30 min w/NADPH” value in [6] is 0.24%. Besides, the “24 hr Dox Inducible IL2FLGluc 293FRT/TO: IL2/PD1” value in data set [8] was above 7.4. Also, the “Liver Microsome Stability (Multiple Species): Rat - % Remaining after 30 min w/NADPH” value in [9] is on record as 1.3%. For the same compound, the “24 hr Dox Inducible TNFaFLGluc 293FRT/TO: TNF/PD1” value in data set [10] is above 7.44.
With `CCn1cnc(/C=C/c2csc(NC(=O)c3cccn3Cc3ccnc(F)c3)n2)c1C` [Compound B117, (E)-N-(4-(2-(1-ethyl-5-methyl-1H-imidazol-4-yl)vinyl)thiazol-2-yl)-1-((2-fluoropyridin-4-yl)methyl)-1H-pyrrole-2-carboxamide], the pIC50 in [1] (mean) was below 4.60; in data set [7] (mean), 7.50; in data set [8] (mean) it was below 4.60; in [10] (mean), 4.63. Moreover, in data set [2], the “Liver Microsome Stability (Multiple Species): Monkey - % Remaining after 30 min w/NADPH” value turned out to be 0.22%. Further, the results for the negative logarithm of the EC50 (pEC50) in [3] and in [4] were 4.67 and 4.77, respectively. Besides, the “Liver Microsome Stability (Multiple Species): Mouse - % Remaining after 30 min w/NADPH” value in data set [5] was 15.8%. The “Liver Microsome Stability (Multiple Species): Human - % Remaining after 30 min w/NADPH” value in data set [6] was found to be 0.29%. For the same compound, the “24 hr Dox Inducible IL2FLGluc 293FRT/TO: IL2/PD1” value in data set [8] (setting [11]) is above 790. Besides, in [9], the “Liver Microsome Stability (Multiple Species): Rat - % Remaining after 30 min w/NADPH” value is recorded as 4.95%. For the same compound, the “24 hr Dox Inducible TNFaFLGluc 293FRT/TO: TNF/PD1” value in data set [10] (setting [11]) came out at 743.
As to `O=C(Nc1nc(/C=C/c2cn(Cc3ccccc3)cn2)cs1)c1cccn1Cc1ccnc(F)c1` [Compound B105, (E)-N-(4-(2-(1-benzyl-1H-imidazol-4-yl)vinyl)thiazol-2-yl)-1-((2-fluoropyridin-4-yl)methyl)-1H-pyrrole-2-carboxamide], the pIC50 is 5.65 in [1], 7.62 in data set [7], 5.55 in [8] and below 4.60 in data set [10]. In addition, the “Liver Microsome Stability (Multiple Species): Monkey - % Remaining after 30 min w/NADPH” value in data set [2] is 0.05%. The pEC50 in [3] and in data set [4] was below 4.60 in each case. Further, the “Liver Microsome Stability (Multiple Species): Mouse - % Remaining after 30 min w/NADPH” value in data set [5] is given as 4.32%. The “Liver Microsome Stability (Multiple Species): Human - % Remaining after 30 min w/NADPH” value in data set [6] is on record as 0.11%. Besides, the “24 hr Dox Inducible IL2FLGluc 293FRT/TO: IL2/PD1” value in data set [8] is 120. Further, in [9], the “Liver Microsome Stability (Multiple Species): Rat - % Remaining after 30 min w/NADPH” value amounted to 2.65%. Also, the “24 hr Dox Inducible TNFaFLGluc 293FRT/TO: TNF/PD1” value in data set [10] was above 1050.

The values are drawn from US20230286973A1, “PROTEIN SECRETION INHIBITORS” (KEZAR LIFE SCIENCES, priority 2020, published 2023).
